# Assay results: US9340590B2 (priority 2011, dated 2016)
# Where two headings read alike, the source gives them in different places. Positions of bridges follow the written chain, without caps; N, C: chain ends. Non-standard residues stand in square brackets, D forms with d. Residues, ends and D or L forms follow the SMILES beside them. Phe(4-NH2) = Nc1ccc(C[C@H](N)C(=O)O)cc1
# Legend:
# Assay in all cases: cell-based
# hNav1.7 = hNav1.7 (Homo sapiens, UniProt Q15858); assay type: cell-based
# hNav1.5 = hNav1.5 (Homo sapiens, UniProt Q14524)
# hNav1.3 = hNav1.3 (Homo sapiens, UniProt Q9NY46); conditions: IonWorks Quattro, read-out: IWQ Use Nav1.3
# [1] = Table 22, IonWorks Quattro, use, […], read-out: IWQ Use Nav1.7
# [2] = IonWorks Quattro, use-dependent block, hNav1.7, read-out: IWQ Use Nav1.7
# [3] = IonWorks Quattro, use-dependent block, hNav1.5, read-out: IWQ Use Nav1.5
# hNav1.5, sequence (Q14524 whole entry, looked up): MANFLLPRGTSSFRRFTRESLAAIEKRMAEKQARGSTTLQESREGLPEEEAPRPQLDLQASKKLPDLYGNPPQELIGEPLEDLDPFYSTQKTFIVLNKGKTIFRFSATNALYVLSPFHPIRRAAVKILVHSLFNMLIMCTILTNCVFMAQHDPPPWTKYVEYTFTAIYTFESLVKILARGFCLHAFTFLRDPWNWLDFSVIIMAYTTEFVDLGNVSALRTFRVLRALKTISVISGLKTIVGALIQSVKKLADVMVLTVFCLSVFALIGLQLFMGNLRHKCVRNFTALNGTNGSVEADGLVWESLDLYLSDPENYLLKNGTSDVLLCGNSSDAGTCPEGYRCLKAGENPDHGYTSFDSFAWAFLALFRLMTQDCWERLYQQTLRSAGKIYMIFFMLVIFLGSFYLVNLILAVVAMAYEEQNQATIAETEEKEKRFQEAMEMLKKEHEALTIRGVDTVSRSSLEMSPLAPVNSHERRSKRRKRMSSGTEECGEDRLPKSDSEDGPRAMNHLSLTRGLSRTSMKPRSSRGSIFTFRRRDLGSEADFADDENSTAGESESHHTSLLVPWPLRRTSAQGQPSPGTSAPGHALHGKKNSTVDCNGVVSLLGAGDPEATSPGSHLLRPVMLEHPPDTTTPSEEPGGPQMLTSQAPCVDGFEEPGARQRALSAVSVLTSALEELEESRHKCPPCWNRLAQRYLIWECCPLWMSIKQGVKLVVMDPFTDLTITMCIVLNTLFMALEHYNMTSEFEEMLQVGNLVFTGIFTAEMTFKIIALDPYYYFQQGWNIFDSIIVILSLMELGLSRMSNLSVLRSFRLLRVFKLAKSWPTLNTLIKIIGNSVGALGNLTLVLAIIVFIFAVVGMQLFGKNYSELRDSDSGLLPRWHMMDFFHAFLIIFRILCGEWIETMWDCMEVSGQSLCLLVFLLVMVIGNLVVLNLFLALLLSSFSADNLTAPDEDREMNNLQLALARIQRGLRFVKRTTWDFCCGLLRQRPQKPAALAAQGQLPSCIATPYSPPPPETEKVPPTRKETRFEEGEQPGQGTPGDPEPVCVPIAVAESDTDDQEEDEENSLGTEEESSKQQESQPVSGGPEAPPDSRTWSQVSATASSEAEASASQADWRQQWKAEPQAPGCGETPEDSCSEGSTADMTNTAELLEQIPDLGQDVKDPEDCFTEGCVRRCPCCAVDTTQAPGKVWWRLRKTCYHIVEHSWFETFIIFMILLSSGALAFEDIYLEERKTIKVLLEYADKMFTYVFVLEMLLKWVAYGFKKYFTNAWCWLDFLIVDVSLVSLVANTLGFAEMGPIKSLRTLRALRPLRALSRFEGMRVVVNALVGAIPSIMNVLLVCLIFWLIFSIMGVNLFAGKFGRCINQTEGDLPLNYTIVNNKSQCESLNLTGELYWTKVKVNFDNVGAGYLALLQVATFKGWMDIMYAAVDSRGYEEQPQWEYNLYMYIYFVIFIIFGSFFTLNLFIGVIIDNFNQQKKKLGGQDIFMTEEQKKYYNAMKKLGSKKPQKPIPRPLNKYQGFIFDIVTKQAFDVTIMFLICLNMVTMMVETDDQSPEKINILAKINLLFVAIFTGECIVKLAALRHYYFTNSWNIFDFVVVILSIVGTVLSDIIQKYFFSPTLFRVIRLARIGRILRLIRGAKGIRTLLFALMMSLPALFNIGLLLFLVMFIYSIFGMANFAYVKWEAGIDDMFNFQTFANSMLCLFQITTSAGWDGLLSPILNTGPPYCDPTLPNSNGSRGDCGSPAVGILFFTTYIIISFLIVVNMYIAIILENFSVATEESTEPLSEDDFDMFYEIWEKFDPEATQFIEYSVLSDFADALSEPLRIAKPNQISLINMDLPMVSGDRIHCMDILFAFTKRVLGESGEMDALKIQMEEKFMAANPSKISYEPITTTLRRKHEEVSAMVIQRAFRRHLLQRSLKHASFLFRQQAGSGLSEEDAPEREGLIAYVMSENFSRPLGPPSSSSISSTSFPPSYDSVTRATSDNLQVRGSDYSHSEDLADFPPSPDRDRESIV
# hNav1.3, sequence (Q9NY46 whole entry, looked up): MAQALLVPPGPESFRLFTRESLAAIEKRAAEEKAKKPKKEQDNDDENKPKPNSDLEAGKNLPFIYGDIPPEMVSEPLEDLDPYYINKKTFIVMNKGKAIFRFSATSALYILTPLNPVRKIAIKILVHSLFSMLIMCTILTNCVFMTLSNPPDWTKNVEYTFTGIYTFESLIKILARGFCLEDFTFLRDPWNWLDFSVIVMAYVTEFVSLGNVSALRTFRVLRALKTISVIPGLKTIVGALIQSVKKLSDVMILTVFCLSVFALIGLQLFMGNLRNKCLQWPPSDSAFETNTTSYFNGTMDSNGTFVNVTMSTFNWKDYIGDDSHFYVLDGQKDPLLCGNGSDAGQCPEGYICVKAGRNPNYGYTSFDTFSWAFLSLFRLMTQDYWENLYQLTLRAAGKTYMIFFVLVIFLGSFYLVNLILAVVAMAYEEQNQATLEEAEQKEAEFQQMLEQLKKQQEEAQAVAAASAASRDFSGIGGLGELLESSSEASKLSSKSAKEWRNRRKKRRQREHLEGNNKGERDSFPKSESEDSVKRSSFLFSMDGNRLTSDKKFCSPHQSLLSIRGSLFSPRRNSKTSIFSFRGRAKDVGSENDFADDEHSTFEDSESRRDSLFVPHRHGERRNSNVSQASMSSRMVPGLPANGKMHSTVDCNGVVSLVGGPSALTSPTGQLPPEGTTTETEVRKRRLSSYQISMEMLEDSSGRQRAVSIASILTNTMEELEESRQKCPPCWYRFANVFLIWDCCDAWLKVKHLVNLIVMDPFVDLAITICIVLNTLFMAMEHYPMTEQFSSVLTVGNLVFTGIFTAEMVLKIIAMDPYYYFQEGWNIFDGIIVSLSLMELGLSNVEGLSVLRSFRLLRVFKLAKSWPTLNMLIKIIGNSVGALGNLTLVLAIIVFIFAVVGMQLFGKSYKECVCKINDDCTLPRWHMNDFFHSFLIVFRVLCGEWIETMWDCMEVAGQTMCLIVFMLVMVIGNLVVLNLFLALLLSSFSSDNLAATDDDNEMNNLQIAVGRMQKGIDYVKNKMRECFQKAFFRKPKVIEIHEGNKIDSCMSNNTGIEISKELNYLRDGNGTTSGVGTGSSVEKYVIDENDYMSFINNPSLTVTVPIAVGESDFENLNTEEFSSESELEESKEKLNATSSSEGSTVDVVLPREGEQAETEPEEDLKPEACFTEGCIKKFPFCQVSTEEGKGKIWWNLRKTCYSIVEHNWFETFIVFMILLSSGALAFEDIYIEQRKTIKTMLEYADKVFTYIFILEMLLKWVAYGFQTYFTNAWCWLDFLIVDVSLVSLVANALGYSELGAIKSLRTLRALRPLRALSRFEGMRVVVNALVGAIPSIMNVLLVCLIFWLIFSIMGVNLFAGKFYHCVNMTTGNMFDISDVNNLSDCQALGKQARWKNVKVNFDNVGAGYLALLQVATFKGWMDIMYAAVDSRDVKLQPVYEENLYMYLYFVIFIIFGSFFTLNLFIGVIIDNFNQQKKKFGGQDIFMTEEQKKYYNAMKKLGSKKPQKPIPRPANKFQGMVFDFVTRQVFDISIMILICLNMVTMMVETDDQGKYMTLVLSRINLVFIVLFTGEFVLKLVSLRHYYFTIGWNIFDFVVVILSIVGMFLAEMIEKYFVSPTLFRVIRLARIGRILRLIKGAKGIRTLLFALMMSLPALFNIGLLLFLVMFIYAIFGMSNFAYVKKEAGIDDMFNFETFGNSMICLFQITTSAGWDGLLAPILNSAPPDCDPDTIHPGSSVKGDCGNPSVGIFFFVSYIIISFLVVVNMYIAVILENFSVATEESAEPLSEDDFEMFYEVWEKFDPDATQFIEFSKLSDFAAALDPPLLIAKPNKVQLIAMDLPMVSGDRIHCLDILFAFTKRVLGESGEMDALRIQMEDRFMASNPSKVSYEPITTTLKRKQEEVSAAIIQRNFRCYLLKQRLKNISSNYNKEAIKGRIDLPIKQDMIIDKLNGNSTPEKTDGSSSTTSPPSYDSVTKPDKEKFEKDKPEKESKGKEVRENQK
compound,measurement,setting,value
"CC[C@H](C)[C@@H]1NC(=O)[C@@H]2CSSC[C@@H]3NC(=O)[C@H](C(C)C)NC(=O)[C@H](CC(C)C)NC(=O)[C@H](CC(N)=O)NC(=O)[C@@H]4CCCN4C(=O)[C@H](CCCNC(=N)N)NC(=O)[C@H](CSSC[C@H](NC(=O)[C@@H](N)CC(=O)O)C(=O)N[C@@H](CC(C)C)C(=O)NCC(=O)N[C@@H](Cc4ccccc4)C(=O)N[C@@H](CCSC)C(=O)N[C@@H](CCCNC(=N)N)C(=O)N[C@@H](CCCCN)C(=O)N2)NC(=O)[C@H](CSSC[C@@H](C(=O)N[C@@H](CCCCN)C(=O)N[C@@H](Cc2ccc(O)cc2)C(=O)N[C@H](C(=O)N[C@@H](Cc2ccccc2)C(N)=O)C(C)C)NC(=O)[C@H](Cc2c[nH]c4ccccc24)NC(=O)[C@H](CCCCN)NC(=O)[C@H]([C@@H](C)O)NC(=O)[C@H](CCCCN)NC(=O)[C@H](CCCNC(=N)N)NC(=O)[C@H](CO)NC3=O)NC(=O)[C@H](CCCCN)NC(=O)[C@H](CC(=O)O)NC(=O)[C@H](CC(N)=O)NC(=O)[C@H](CC(=O)O)NC(=O)[C@@H]2CCCN2C1=O [compound 94] (H-DCLGFMRKCIPDNDKCCRPNLVCSRKTKWCKYVF-NH2; disulfide 2-17, 9-23, 16-30)",IC50,hNav1.7; [1],0.1 µM
same,IC50,"hNav1.5; Table 22, IonWorks Quattro, use, […], read-out: IWQ Use Nav1.5",9.29 µM
same,IC50,"hNav1.3; Table 22, use, […]",0.05 µM
CC[C@H](C)[C@@H]1NC(=O)[C@H](CC(=O)O)NC(=O)[C@@H]2CCCN2C(=O)[C@H]([C@@H](C)CC)NC(=O)[C@@H]2CSSC[C@@H]3NC(=O)[C@H](C(C)C)NC(=O)[C@H](CC(C)C)NC(=O)[C@H](CC(N)=O)NC(=O)[C@@H]4CCCN4C(=O)[C@H](CCCNC(=N)N)NC(=O)[C@H](CSSC[C@H](NC(=O)[C@@H](N)CC(=O)O)C(=O)N[C@@H](CC(C)C)C(=O)NCC(=O)N[C@@H](C)C(=O)N[C@@H](Cc4ccccc4)C(=O)N[C@@H](CCCNC(=N)N)C(=O)N[C@@H](CCCCN)C(=O)N2)NC(=O)[C@H](CSSC[C@@H](C(=O)N[C@@H](CCCCN)C(=O)N[C@@H](Cc2ccc(O)cc2)C(=O)N[C@H](C(=O)N[C@@H](Cc2ccccc2)C(=O)O)C(C)C)NC(=O)[C@H](Cc2c[nH]c4ccccc24)NC(=O)[C@H](CCCNC(=N)N)NC(=O)[C@H](Cc2c[nH]cn2)NC(=O)[C@H]([C@@H](C)O)NC(=O)[C@H](CCCNC(=N)N)NC(=O)[C@H](CO)NC3=O)NC(=O)[C@H](CCCCN)NC(=O)[C@H](CC(=O)O)NC1=O [compound 842],IC50,hNav1.7; [2],> 5 µM
same,IC50,hNav1.5; [3],> 5 µM
same,IC50,"hNav1.3; use-dependent block, hNav1.3",3 µM
"CC[C@H](C)[C@@H]1NC(=O)[C@@H]2CSSC[C@@H]3NC(=O)[C@H](C(C)C)NC(=O)[C@H](CC(C)C)NC(=O)[C@H](CC(N)=O)NC(=O)[C@@H]4CCCN4C(=O)[C@H](CCCNC(=N)N)NC(=O)[C@H](CSSC[C@H](NC(=O)[C@@H](N)CC(=O)O)C(=O)N[C@@H](CC(C)C)C(=O)NCC(=O)N[C@@H](Cc4ccccc4)C(=O)N[C@@H](CCSC)C(=O)N[C@@H](CCCNC(=N)N)C(=O)N[C@@H](CCCCN)C(=O)N2)NC(=O)[C@H](CSSC[C@@H](C(=O)N[C@@H](CCCCN)C(=O)N[C@@H](Cc2ccc(O)cc2)C(=O)N[C@H](C(=O)N[C@@H](Cc2ccccc2)C(N)=O)C(C)C)NC(=O)[C@H](Cc2c[nH]c4ccccc24)NC(=O)[C@H](CCCCN)NC(=O)[C@H](Cc2cnc[nH]2)NC(=O)[C@H](CCCNC(=N)N)NC(=O)[C@H](CCCNC(=N)N)NC(=O)[C@H](CO)NC3=O)NC(=O)[C@H](CCCCN)NC(=O)[C@H](CC(=O)O)NC(=O)[C@H](CC(N)=O)NC(=O)[C@H](CC(=O)O)NC(=O)[C@@H]2CCCN2C1=O [compound 70] (H-DCLGFMRKCIPDNDKCCRPNLVCSRRHKWCKYVF-NH2; disulfide 2-17, 9-23, 16-30)",IC50,hNav1.7; [1],0.03 µM
same,IC50,hNav1.5; IWQ Use Nav1.5 (μM),3.06 µM
same,IC50,"hNav1.3; Table 22, use, […]",0.008 µM
"CC[C@H](C)[C@@H]1NC(=O)[C@@H]2CSSC[C@@H]3NC(=O)[C@H](C(C)C)NC(=O)[C@H](CC(C)C)NC(=O)[C@H](CC(N)=O)NC(=O)[C@@H]4CCCN4C(=O)[C@H](CCCNC(=N)N)NC(=O)[C@H](CSSC[C@H](NC(=O)[C@@H](N)CC(=O)O)C(=O)N[C@@H](CC(C)C)C(=O)NCC(=O)N[C@@H](C)C(=O)N[C@@H](CCSC)C(=O)N[C@@H](CCCNC(=N)N)C(=O)N[C@@H](CCCCN)C(=O)N2)NC(=O)[C@H](CSSC[C@@H](C(=O)N[C@@H](CCCCN)C(=O)N[C@@H](Cc2ccc(O)cc2)C(=O)N[C@H](C(=O)N[C@@H](Cc2ccccc2)C(N)=O)C(C)C)NC(=O)[C@H](Cc2c[nH]c4ccccc24)NC(=O)[C@H](Cc2ccc(N)cc2)NC(=O)[C@H](Cc2c[nH]cn2)NC(=O)[C@H]([C@@H](C)O)NC(=O)[C@H](CCCNC(=N)N)NC(=O)[C@H](CO)NC3=O)NC(=O)[C@H](CCCCN)NC(=O)[C@H](CC(=O)O)NC(=O)[C@H](CC(N)=O)NC(=O)[C@H](CC(=O)O)NC(=O)[C@@H]2CCCN2C1=O [compound 741] (H-DCLGAMRKCIPDNDKCCRPNLVCSRTH[Phe(4-NH2)]WCKYVF-NH2; disulfide 2-17, 9-23, 16-30)",IC50,hNav1.7; [2],1.1 µM
same,IC50,hNav1.5; [3],24.4 µM
same,IC50,"hNav1.3; use-dependent block, hNav1.3",2.3 µM
CC[C@H](C)[C@@H]1NC(=O)[C@@H]2CSSC[C@@H]3NC(=O)[C@H](C(C)C)NC(=O)[C@H](CC(C)C)NC(=O)[C@H](CC(N)=O)NC(=O)[C@@H]4CCCN4C(=O)[C@H](CCCNC(=N)N)NC(=O)[C@H](CSSC[C@H](NC(=O)[C@@H](N)CC(=O)O)C(=O)N[C@@H](CC(C)C)C(=O)NCC(=O)N[C@@H](Cc4ccccc4)C(=O)N[C@@H](CCSC)C(=O)N[C@@H](CCCNC(=N)N)C(=O)N[C@@H](CCCCN)C(=O)N2)NC(=O)[C@H](CSSC[C@@H](C(=O)N[C@@H](CCCCN)C(=O)N[C@@H](Cc2ccc(O)cc2)C(=O)N[C@H](C(=O)N[C@@H](Cc2ccccc2)C(N)=O)C(C)C)NC(=O)[C@H](Cc2c[nH]c4ccccc24)NC(=O)[C@H](CCCCN)NC(=O)[C@H](Cc2c[nH]cn2)NC(=O)[C@H]([C@@H](C)O)NC(=O)[C@H](CCCNC(=NC)NC)NC(=O)[C@H](CO)NC3=O)NC(=O)[C@H](CCCCN)NC(=O)[C@H](CC(=O)O)NC(=O)[C@H](CC(N)=O)NC(=O)[C@H](CC(=O)O)NC(=O)[C@@H]2CCCN2C1=O [compound 336],IC50,hNav1.7,0.14 µM
same,IC50,"hNav1.5; IonWorks Quattro, Use, read-out: IWQ Use Nav1.5",9.22 µM
same,IC50,hNav1.3; Use,0.11 µM
CC[C@H](C)[C@@H]1NC(=O)[C@@H]2CSSC[C@@H]3NC(=O)[C@H](C(C)C)NC(=O)[C@H](CC(C)C)NC(=O)[C@H](CC(N)=O)NC(=O)[C@@H]4CCCN4C(=O)[C@H](CCCNC(=N)N)NC(=O)[C@H](CSSC[C@H](NC(=O)[C@@H](N)CC(=O)O)C(=O)N[C@@H](CC(C)C)C(=O)NCC(=O)N[C@@H](C)C(=O)N[C@@H](Cc4ccccc4)C(=O)N[C@@H](CCCNC(=N)N)C(=O)N[C@@H](CCCCN)C(=O)N2)NC(=O)[C@H](CSSC[C@@H](C(=O)N[C@@H](CCCCN)C(=O)N[C@@H](Cc2ccc(O)cc2)C(=O)N[C@H](C(=O)N[C@@H](Cc2ccccc2)C(=O)O)C(C)C)NC(=O)[C@H](Cc2c[nH]c4ccccc24)NC(=O)[C@H](CCCNC(=N)N)NC(=O)[C@H](Cc2c[nH]cn2)NC(=O)[C@H]([C@@H](C)O)NC(=O)[C@H](CCCNC(=N)N)NC(=O)[C@H](CO)NC3=O)NC(=O)[C@H](CCCCN)NC(=O)[C@H](CC(=O)O)NC(=O)[C@H](Cc2ccccc2)NC(=O)[C@H](CC(=O)O)NC(=O)[C@@H]2CCCN2C1=O [compound 839],IC50,hNav1.7; [2],> 5 µM
same,IC50,hNav1.5; [3],> 5 µM
same,IC50,"hNav1.3; use-dependent block, hNav1.3",1.2 µM
"CC[C@H](C)[C@@H]1NC(=O)[C@@H]2CSSC[C@@H]3NC(=O)[C@H](C(C)C)NC(=O)[C@H](CC(C)C)NC(=O)[C@H](CC(N)=O)NC(=O)[C@@H]4CCCN4C(=O)[C@H](CCCNC(=N)N)NC(=O)[C@H](CSSC[C@H](NC(=O)[C@@H](N)CC(=O)O)C(=O)N[C@@H](CCC(N)=O)C(=O)NCC(=O)N[C@@H](Cc4ccccc4)C(=O)N[C@@H](CCSC)C(=O)N[C@@H](CCCNC(=N)N)C(=O)N[C@@H](CCCCN)C(=O)N2)NC(=O)[C@H](CSSC[C@@H](C(=O)N[C@@H](CCCCN)C(=O)N[C@@H](Cc2ccc(O)cc2)C(=O)N[C@H](C(=O)N[C@@H](Cc2ccccc2)C(N)=O)C(C)C)NC(=O)[C@H](Cc2c[nH]c4ccccc24)NC(=O)[C@H](CCCCN)NC(=O)[C@H](Cc2c[nH]cn2)NC(=O)[C@H]([C@@H](C)O)NC(=O)[C@H](CCCNC(=N)N)NC(=O)[C@H](CO)NC3=O)NC(=O)[C@H](CCCCN)NC(=O)[C@H](CC(=O)O)NC(=O)[C@H](CC(N)=O)NC(=O)[C@H](CC(=O)O)NC(=O)[C@@H]2CCCN2C1=O [SEQ ID NO: 98] (H-DCQGFMRKCIPDNDKCCRPNLVCSRTHKWCKYVF-NH2; disulfide 2-17, 9-23, 16-30)",IC50,"hNav1.7; IonWorks Quattro, clamped to −110 mV, depolarized to −10 mV, 5 min after compound, n=2, read-out: IWQ Use Nav1.7",0.25 µM
same,IC50,"hNav1.5; IonWorks Quattro, clamped to −110 mV, depolarized to −10 mV, 5 min after compound, n=2, read-out: IWQ Use Nav1.5",16.4 µM
same,IC50,"hNav1.3; clamped to −110 mV, depolarized to −10 mV, 5 min after compound, n=2",0.24 µM
